Where two headings read alike, the source gives them in different places.
Experiments:
HIV-IIIb = assay: Test A: Antiviral Assay in MT4 Cells; type: cell-based, HIV-1; settings: for inhibition at 2 µM: 2 μM drug concentration, read-out: Response at 2 μM (percent inhibition of virus-induced cell killing)
Procedure: Test A: Antiviral Assay in MT4 Cells
MT-4 cells were next mixed with HIV-IIIb at an m.o.i of 0.003 for 1 hour, after which time 35 μL of virus/cell mixture (2000 cells) was immediately added to each well containing 40 μL of diluted compound. The plates were then incubated at 37° C. for 5 days. After 5 days of incubation, 25 μl of 2× concentrated CellTiter-Glo™ Reagent (catalog #G7571, Promega Biosciences, Inc., Madison, Wis.) was added to each well containing MT-4 cells. Cell lysis was carried out by incubating at room temperature for 10 min and then chemiluminescence was read.

[1] = Test B: Cytotoxicity Assay; type: cell-based; settings: human, uninfected MT-4 cells, CellTiter-Glo
Procedure: Test B: Cytotoxicity Assay Compound cytotoxicity and the corresponding CC50 values was determined using the same protocol as described in the antiviral assay (Test A) except that uninfected cells were used.

[2] = Human immunodeficiency virus 1, MT4, 120 h, 0.2 μM drug concentration, MT-4 cells infected with HIV-IIIb, 5 days, values normalized to 100%, average over time, read-out: % inhibition at 0.2 μM (percent inhibition of virus-induced cell killing)
[3] = Human immunodeficiency virus 1, IIIB, MT4, 0.2 μM drug concentration, comparison with previously published compounds, read-out: Response at 0.2 μM (percent inhibition of virus-induced cell killing)
[4] = Human immunodeficiency virus 1, IIIB, MT4, comparison with previously published compounds

| SMILES | inhibition at 0.2 µM (HIV-IIIb; [2]) [%] | CC50 at 5 days [1] [µM] | inhibition at 0.2 µM (HIV-IIIb; [3]) [%] | inhibition at 2 µM (HIV-IIIb; [4]) [%] | inhibition at 0.2 µM (HIV-IIIb; Human immunodeficiency virus 1, IIIB, MT4, 120 h, read-out: % inhibition at 0.2 μM (percent inhibition of virus-induced cell killing)) [%] |
| --- | --- | --- | --- | --- | --- |
| Cn1nc(NS(C)(=O)=O)c2c(Cl)ccc(-c3ccc(C#CC4CCCN4C(=O)CO)nc3[C@H](Cc3cc(F)cc(F)c3)NC(=O)Cn3nc(C(F)(F)F)c4c3C(F)(F)[C@@H]3C[C@H]43)c21 (stereo partly drawn) [Compound 66, N-((1S)-1-(3-(4-chloro-1-methyl-3-(methylsulfonamido)-1H-indazol-7-yl)-6-((1-(2-hydroxyacetyl)pyrrolidin-2-yl)ethynyl)pyridin-2-yl)-2-(3,5-difluorophenyl)ethyl)-2-((3bS,4aR)-5,5-difluoro-3-(trifluoromethyl)-3b,4,4a,5-tetrahydro-1H-cyclopropa[3,4]cyclopenta[1,2-c]pyrazol-1-yl)acetamide] | 92 | 11.6 |  |  |  |
| Cn1nc(NS(C)(=O)=O)c2c(Cl)ccc(-c3ccc(C#C[C@]4(C)CNCCO4)nc3[C@H](Cc3cc(F)cc(F)c3)NC(=O)Cn3nc(C#N)c4c3C(F)(F)[C@@H]3C[C@H]43)c21 [Compound 88L, N—((S)-1-(3-(4-chloro-1-methyl-3-(methylsulfonamido)-1H-indazol-7-yl)-6-(((R)-2-methylmorpholin-2-yl)ethynyl)pyridin-2-yl)-2-(3,5-difluorophenyl)ethyl)-2-((3bS,4aR)-3-cyano-5,5-difluoro-3b,4,4a,5-tetrahydro-1H-cyclopropa[3,4]cyclopenta[1,2-c]pyrazol-1-yl)acetamide] | 97 | 5.79 |  |  |  |
| Cn1nc(NS(C)(=O)=O)c2cccc(-c3ccc(C#CC4(O)CCCC4)nc3[C@H](Cc3cc(F)cc(F)c3)NC(=O)Cn3nc(C(F)(F)F)c4c3C(F)(F)[C@@H]3C[C@H]43)c21 [Compound 37, 2-((3bS,4aR)-5,5-difluoro-3-(trifluoromethyl)-3b,4,4a,5-tetrahydro-1H-cyclopropa[3,4]cyclopenta[1,2-c]pyrazol-1-yl)-N—((S)-2-(3,5-difluorophenyl)-1-(6-((1-hydroxycyclopentyl)ethynyl)-3-(1-methyl-3-(methylsulfonamido)-1H-indazol-7-yl)pyridin-2-yl)ethyl)acetamide] | 80 | 8.71 |  |  |  |
| Cn1nc(NS(C)(=O)=O)c2c(Cl)ccc(-c3ccc(C#CC4CCCN4)nc3[C@H](Cc3cc(F)cc(F)c3)NC(=O)Cn3nc(C(F)(F)F)c4c3C(F)(F)[C@@H]3C[C@H]43)c21 (stereo partly drawn) [Compound 43H, N-((1S)-1-(3-(4-chloro-1-methyl-3-(methylsulfonamido)-1H-indazol-7-yl)-6-(pyrrolidin-2-ylethynyl)pyridin-2-yl)-2-(3,5-difluorophenyl)ethyl)-2-((3bS,4aR)-5,5-difluoro-3-(trifluoromethyl)-3b,4,4a,5-tetrahydro-1H-cyclopropa[3,4]cyclopenta[1,2-c]pyrazol-1-yl)acetamide] | 99 | 4.34 |  |  |  |
| Cn1nc(N)c2cccc(-c3ccc(C#CC4(O)CCOCC4)nc3[C@H](Cc3cc(F)cc(F)c3)NC(=O)Cn3nc(C(F)(F)F)c4c3C(F)(F)[C@@H]3C[C@H]43)c21 [Compound 27, N—((S)-1-(3-(3-amino-1-methyl-1H-indazol-7-yl)-6-((4-hydroxytetrahydro-2H-pyran-4-yl)ethynyl)pyridin-2-yl)-2-(3,5-difluorophenyl)ethyl)-2-((3bS,4aR)-5,5-difluoro-3-(trifluoromethyl)-3b,4,4a,5-tetrahydro-1H-cyclopropa[3,4]cyclopenta[1,2-c]pyrazol-1-yl)acetamide] | 92 | 15.8 |  |  |  |
| Cn1nc(NS(C)(=O)=O)c2c(Cl)ccc(-c3ccc(-c4cnn(C5COC5)c4)nc3[C@H](Cc3cc(F)cc(F)c3)NC(=O)Cn3nc(C(F)(F)F)c4c3C(F)(F)[C@@H]3C[C@H]43)c21 [Compound 72, N—((S)-1-(3-(4-chloro-1-methyl-3-(methylsulfonamido)-1H-indazol-7-yl)-6-(1-(oxetan-3-yl)-1H-pyrazol-4-yl)pyridin-2-yl)-2-(3,5-difluorophenyl)ethyl)-2-((3bS,4aR)-5,5-difluoro-3-(trifluoromethyl)-3b,4,4a,5-tetrahydro-1H-cyclopropa[3,4]cyclopenta[1,2-c]pyrazol-1-yl)acetamide] | 93 | 50.3 |  |  |  |
| N#Cc1ccc(C#Cc2ccc(-c3ccc4c(c3)C(=O)NC4)c([C@H](Cc3cc(F)cc(F)c3)NC(=O)Cn3nc(C(F)(F)F)c4c3C(F)(F)[C@@H]3C[C@H]43)n2)cc1 [Compound 9, N—((S)-1-(6-((4-cyanophenyl)ethynyl)-3-(3-oxoisoindolin-5-yl)pyridin-2-yl)-2-(3,5-difluorophenyl)ethyl)-2-((3bS,4aR)-5,5-difluoro-3-(trifluromethyl)-3b,4,4a,5-tetrahydro-1H-cyclopropa[3,4]cyclopenta[1,2-c]pyrazol-1-yl)acetamide] | 25 | > 53.2 |  |  |  |
| CN1CC(O)(C#Cc2ccc(-c3cccc4c(NS(C)(=O)=O)nn(C)c34)c([C@H](Cc3cc(F)cc(F)c3)NC(=O)Cn3nc(C(F)(F)F)c4c3C(F)(F)[C@@H]3C[C@H]43)n2)C1 [Compound 23C, 2-((3bS,4aR)-5,5-difluoro-3-(trifluoromethyl)-3b,4,4a,5-tetrahydro-1H-cyclopropa[3,4]cyclopenta[1,2-c]pyrazol-1-yl)-N—((S)-2-(3,5-difluorophenyl)-1-(6-((3-hydroxy-1-methylazetidin-3-yl)ethynyl)-3-(1-methyl-3-(methylsulfonamido)-1H-indazol-7-yl)pyridin-2-yl)ethyl)acetamide] | 100 | 9.19 |  |  |  |
| Cn1nc(NS(C)(=O)=O)c2c(Cl)ccc(-c3ccc(C#C[C@@H]4COC(=O)N4)nc3[C@H](Cc3cc(F)cc(F)c3)NC(=O)Cn3nc(C(F)F)c4c3C(F)(F)[C@@H]3C[C@H]43)c21 [Compound 97C, N—((S)-1-(3-(4-chloro-1-methyl-3-(methylsulfonamido)-1H-indazol-7-yl)-6-(((R)-2-oxooxazolidin-4-yl)ethynyl)pyridin-2-yl)-2-(3,5-difluorophenyl)ethyl)-2-((3bS,4aR)-3-(difluoromethyl)-5,5-difluoro-3b,4,4a,5-tetrahydro-1H-cyclopropa[3,4]cyclopenta[1,2-c]pyrazol-1-yl)acetamide] | 89 | 15.2 |  |  |  |
| Cn1nc(NS(C)(=O)=O)c2c(Cl)ccc(-c3ccc(C#CC4(O)CCOCC4)nc3[C@H](Cc3cc(F)cc(F)c3)NC(=O)Cn3nc(C(F)(F)F)c4c3C(F)(F)[C@@H]3C[C@H]43)c21 [Compound 39, N—((S)-1-(3-(4-chloro-1-methyl-3-(methylsulfonamido)-1H-indazol-7-yl)-6-((4-hydroxytetrahydro-2H-pyran-4-yl)ethynyl)pyridin-2-yl)-2-(3,5-difluorophenyl)ethyl)-2-((3bS,4aR)-5,5-difluoro-3-(trifluoromethyl)-3b,4,4a,5-tetrahydro-1H-cyclopropa[3,4]cyclopenta[1,2-c]pyrazol-1-yl)acetamide] | 95 | 10.7 |  |  |  |
| Cn1nc(NS(C)(=O)=O)c2cccc(-c3ccc(C#CC4(O)CCOCC4)nc3[C@H](Cc3cc(F)cc(F)c3)NC(=O)Cn3nc(C(F)(F)F)c4c3C(F)(F)[C@@H]3C[C@H]43)c21 [Compound 26, 2-((3bS,4aR)-5,5-difluoro-3-(trifluoromethyl)-3b,4,4a,5-tetrahydro-1H-cyclopropa[3,4]cyclopenta[1,2-c]pyrazol-1-yl)-N—((S)-2-(3,5-difluorophenyl)-1-(6-((4-hydroxytetrahydro-2H-pyran-4-yl)ethynyl)-3-(1-methyl-3-(methylsulfonamido)-1H-indazol-7-yl)pyridin-2-yl)ethyl)acetamide] | 94 | 15.9 |  |  |  |
| COc1ccc(C#Cc2ccc(-c3ccc4c(c3)C(=O)NC4)c([C@H](Cc3cc(F)cc(F)c3)NC(=O)Cn3nc(C(F)(F)F)c4c3C(F)(F)[C@@H]3C[C@H]43)n2)cn1 [Compound 10C, 2-((3bS,4aR)-5,5-difluoro-3-(trifluoromethyl)-3b,4,4a,5-tetrahydro-1H-cyclopropa[3,4]cyclopenta[1,2-c]pyrazol-1-yl)-N—((S)-2-(3,5-difluorophenyl)-1-(6-((6-methoxypyridin-3-yl)ethynyl)-3-(3-oxoisoindolin-5-yl)pyridin-2-yl)ethyl)acetamide] | 21 | > 51.9 |  |  |  |
| O=C(Cc1c[nH]c2ccc(O)cc12)N[C@@H](Cc1cc(F)cc(F)c1)c1ncccc1C#CC1CC1 [Compound 53, reference compound] |  |  | 0 | 33 |  |
| CC(C)(O)C#Cc1ccc(-c2ccc(F)c(C(N)=O)c2)c([C@H](Cc2cc(F)cc(F)c2)NC(=O)Cn2nc(C(F)(F)F)c3c2C(F)(F)[C@@H]2C[C@H]32)n1 [Compound 18, reference compound] |  |  | 96 | 96 |  |
| Cn1nc(NS(C)(=O)=O)c2c(Cl)ccc(-c3ccc(C#CC4(O)CC(F)(F)C4)nc3[C@H](Cc3cc(F)cc(F)c3)NC(=O)Cn3nc(C(F)F)c4c3C(F)(F)[C@@H]3C[C@H]43)c21 [Compound 95E, N—((S)-1-(3-(4-chloro-1-methyl-3-(methylsulfonamido)-1H-indazol-7-yl)-6-((3,3-difluoro-1-hydroxycyclobutyl)ethynyl)pyridin-2-yl)-2-(3,5-difluorophenyl)ethyl)-2-((3bS,4aR)-3-(difluoromethyl)-5,5-difluoro-3b,4,4a,5-tetrahydro-1H-cyclopropa[3,4]cyclopenta[1,2-c]pyrazol-1-yl)acetamide] |  |  |  |  | 96 |

Reference: patent US9873680B2 (Gilead Sciences, Inc., priority 2014, dated 2018)
